Measurements from paper PMC6628648, “Enabling microbial syringol conversion through structure-guided protein engineering” (Proceedings of the National Academy of Sciences of the …, 2019).

Columns and labels:
GcoA-F169A = GcoA-F169A (Amycolatopsis sp., UniProt P0DPQ7, F169A); experiment: Discontinuous HPLC specific activity (aromatic substrate disappearance); assay type: biochemical, Amycolatopsis sp. ATCC 39116; parameters: GST (N, cleaved yes); made in house; host or cells: E. coli Rosetta 2 (DE3); conditions: 300 μM substrate, 300 μM NADH, 0.2 μM F169A/GcoB
GcoA-F169A, sequence (P0DPQ7 whole entry F169A): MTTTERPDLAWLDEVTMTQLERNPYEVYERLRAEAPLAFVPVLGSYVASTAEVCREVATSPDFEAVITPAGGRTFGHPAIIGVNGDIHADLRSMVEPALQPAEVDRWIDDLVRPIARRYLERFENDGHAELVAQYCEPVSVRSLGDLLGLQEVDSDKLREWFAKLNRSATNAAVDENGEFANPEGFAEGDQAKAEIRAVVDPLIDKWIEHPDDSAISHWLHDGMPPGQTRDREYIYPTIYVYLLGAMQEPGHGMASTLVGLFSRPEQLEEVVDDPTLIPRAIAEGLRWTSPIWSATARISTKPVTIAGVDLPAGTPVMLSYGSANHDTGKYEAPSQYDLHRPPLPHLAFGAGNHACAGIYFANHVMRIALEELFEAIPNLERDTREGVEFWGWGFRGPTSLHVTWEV
Procedure: HPLC was used to verify the O-demethylated product of GcoA-F169A GcoA/GcoB with guaiacol, syringol, or 3MC. In addition, discontinuous HPLC was used to determine the specific activity of aromatic product disappearance. Details are provided in SI Appendix. […]
vi = Vmax[S]/(KM + [S]) (4)
Determination of substrate dissociation constants (KD) with F169A. 0-60 µM of guaiacol, syringol, or 3MC in 0.5 or 1 µM aliquots, were titrated into a cuvette containing 3 µM F169A GcoA in 25 mM HEPES, 50 mM NaCl, pH 7.5. The spectrum after each substrate addition was recorded, beginning with no substrate bound. The solution reached equilibrium before the next addition. A difference spectrum was made to illustrate the shift from a low-spin aquo-heme complex to the high-spin substrate-bound complex (spectral […]
shift from 417 nm to 388 nm). […] The absorbance […]
at 388 nm (Abs388-417 nm) was plotted as a function of [substrate], yielding a quadratic curve that was fit to equation (5) to determine […]
Formaldehyde determination. A colorimetric assay using tryptophan can be used to quantify the amount of formaldehyde produced in F169 GcoA/B reactions with guaiacol, syringol, or 3MC. […] 200 μM NADH was added and the background rate recorded. 100 (guaiacol, syringol, or 3MC) or 200 (syringol) μM of substrate was then added and the reaction monitored until there was no more change, due to either substrate, NADH or O2 depletion, whichever occurred first. […] After cooling, the absorbance was read at 575 nm and the [formaldehyde] calculated by using ε575 nm = 4.2 mM-1 cm-1, obtained with formaldehyde as a standard (1). […]
HPLC for product identification and specific activity measurement. […] Integrated intensities vs [standards] were plotted and the resulting standard curves used to quantify the reactants and products.
For specific activity determination, 300 μM guaiacol, syringol, or 3MC were added from 0.1 M DMSO stocks to air saturated buffer (25 mM HEPES, 50 mM NaCl, pH 7.5), with a final volume of 1 mL. The [analyte] was measured via the above HPLC method. […]

GcoA variant F169H = target: T1, GcoA variant F169H (Amycolatopsis sp., UniProt P0DPQ7, F169H); experiment: NADH consumption assay (specific activity) with GcoB; assay type: biochemical, Amycolatopsis sp. ATCC 39116; conditions: saturating (200 µM) substrate, pH 7.5, 25°C
T1 construct: GST (N, cleaved yes); made in house; host or cells: E. coli Rosetta 2 (DE3)
T1 sequence (P0DPQ7 whole entry F169H): as the sequence (P0DPQ7 whole entry F169A) above, with A169H counted along it

Row | Structure (SMILES) | aromatic substrate disappearance (specific activity) (GcoA-F169A) | Specific activity (GcoA variant F169H)
1 | COc1cccc(O)c1O [3MC, 3-methoxycatechol] | 2.6 ± 0.3 μM s-1 μmol F169A-1 | 4.3 ± 0.4 μmol sec-1 μmol-1 GcoA
2 | COc1ccccc1O [guaiacol, 2-methoxyphenol] | 5.6 ± 0.3 μM s-1 μmol F169A-1 | 7.9 ± 3 μmol sec-1 μmol-1 GcoA
3 | COc1cccc(OC)c1O [syringol, 2,6-dimethoxyphenol] | 4.1 ± 0.3 μM s-1 μmol F169A-1 | 3.9 ± 0.2 μmol sec-1 μmol-1 GcoA
